Assay results from patent publication US12679801B2, “Amino lipid and preparation method and application thereof” (Shenzhen MagicRNA Biotechnology Co., Ltd., priority 2022, dated 2026).

System: BMDC primary cells
Assay: Luc mRNA LNP transfection on BMDC primary cells (Embodiment 21, Table 9)
Type: cell-based, C57BL/6 mice
Details: 16 h, ONE-Glo Luciferase
Protocol: Preparation method: the same as that in Embodiment 17.
Animal preparation: 6-week-old female C57BL/6 mice with the body weight about 20 g were selected. A feeding environment was an SPF stage feeding room. Animal tests were strictly performed according to the guide of the national health institute and the animal ethics requirements.
Cell acquisition: C57BL/6 mice were killed through cervical dislocation, and were soaked for 5 min in 75% ethyl alcohol. Dissection was performed to obtain thigh and calf tibiae of the mice. Attached muscles were removed to expose sclerotin. Then, bone marrow in tibiae was blown out by using a 1 mL injector sucked with PBS. After the bone marrow was blown away, impurities were filtered away by a 50 μm filter screen. A red blood cell lysis buffer (3-4 mL) was added into an obtained filtrate. Then, after placement for 5 min, 800 g centrifugation was performed for 5 min to remove a supernatant. The obtained cells were placed into a 1640 culture medium (containing 10% fetal calf serum, 20 ng/mL GMCSF and 10 ng/mL IL4) to be resuspended, and were inoculated into a 6-well plate at an inoculation density of 100000 cells/ml culture medium. The materials were placed into a 37° C. cell incubator containing 5% CO2. Half liquid change was performed once every 2 days. Suspended cells and loose wall attached cells were collected on the seventh day, and were inoculated to a 96-well all-white ELISA plate at the inoculation density of 20000 cells per well, and the volume of a culture medium was 100 μL.
Cell transfection: lipid nanoparticles coated with luciferase mRNA were added into a 96-well white ELISA plate laid with primary cells. The adding volume of the mRNA lipid nanoparticles in each well was controlled to be 10 μL. Then, the materials were put into a 37° C. incubator containing 5% CO2 for 16 h.
Transfection efficiency detection: 20 μL of a substrate ONE-Glo™ Luciferase was added into each well of a 96-well all-white ELISA plate, and after 1 min, detection was performed by a multifunctional or multimode microplate reader.

CCCCCCCCCCCCCCC(COC(=O)C(CCCCCCC)CCCCCCC)OC(=O)CCCCN(C)C (stereo not shown) [E11C114A11]
Luciferase luminescence intensity: 6.5E+04

CCCCCCCCCCCC(COC(=O)CC(CCCCC)CCCCCCCCC)OC(=O)CCCCN(C)C (stereo not shown) [E8C123A11]
Luciferase luminescence intensity: 7.1E+04

CCCCCCCCCCCCCC(COC(=O)C(CCCCC)CCCCCCCCCCC)OC(=O)CCCN(C)C (stereo not shown) [E10C111A9]
Luciferase luminescence intensity: 3.7E+04

CCCCCCCCCCCCC(COC(=O)C(CCCC)CCCCCCCCCC)OC(=O)CCCCN(C)C (stereo not shown) [E9C104A11]
Luciferase luminescence intensity: 4.4E+04

CCCCCCCCCCCCC(COC(=O)C(CCCCC)CCCCCCCCC)OC(=O)CCCCN(C)C (stereo not shown) [E9C109A11]
Luciferase luminescence intensity: 3.6E+04

CCCCCCCCCCCCC(CCCC)C(=O)OCC(CCCCCCCCCC)OC(=O)CCCN(C)C (stereo not shown) [E7C106A9]
Luciferase luminescence intensity: 3.9E+04

CCCCCCCCCCCCCCC(COC(=O)C(CCCCCCCC)CCCCCCCC)OC(=O)CCCCN(C)C (stereo not shown) [E11C115A11]
Luciferase luminescence intensity: 6.3E+04

CCCCCCCCCCCC(COC(=O)C(CCCC)CCCCCCCCCC)OC(=O)CCCN(C)C (stereo not shown) [E8C104A9]
Luciferase luminescence intensity: 3.7E+04

CCCCCCCCCCCCCC(COC(=O)C(CCCC)CCCCCCCCCCCC)OC(=O)CCCN(C)C (stereo not shown) [E10C106A9]
Luciferase luminescence intensity: 4.2E+04

CCCCCCCCCCC(COC(=O)CC(CCCCCCC)CCCCCCC)OC(=O)CCCN(C)C (stereo not shown) [E7C128A9]
Luciferase luminescence intensity: 3.5E+04

CCCCCCCCCCCCCCC(COC(=O)C(CCCCC)CCCCCCCCC)OC(=O)CCCCN(C)C (stereo not shown) [E11C109A11]
Luciferase luminescence intensity: 4.8E+04

CCCCCCCCCCCCC(COC(=O)C(CCCCCCC)CCCCCCC)OC(=O)CCCCN(C)C (stereo not shown) [E9C114A11]
Luciferase luminescence intensity: 8.5E+04

CCCCCCCCC(COC(=O)C(CCCCCCCC)CCCCCCCC)OC(=O)CCCN(C)C (stereo not shown) [E5C115A9]
Luciferase luminescence intensity: 2.7E+04

CCCCCCCCC(COC(=O)CC(CCCCCCC)CCCCCCC)OC(=O)CCCN(C)C (stereo not shown) [E5C128A9]
Luciferase luminescence intensity: 3.9E+04

CCCCCCCCCCCCCCC(COC(=O)CC(CCCCCC)CCCCCCCC)OC(=O)CCCN(C)C (stereo not shown) [E11C126A9]
Luciferase luminescence intensity: 3.6E+04

CCCCCCCCCCC(COC(=O)C(CCCC)CCCCCCCCCC)OC(=O)CCCN(C)C (stereo not shown) [E7C104A9]
Luciferase luminescence intensity: 3.9E+04

CCCCCCCCCCCCC(COC(=O)CC(CCCCC)CCCCCCCCC)OC(=O)CCCCN(C)C (stereo not shown) [E9C123A11]
Luciferase luminescence intensity: 5.1E+04

CCCCCCCCCCC(COC(=O)CC(CCCCCC)CCCCCCCC)OC(=O)CCCCN(C)C (stereo not shown) [E7C126A11]
Luciferase luminescence intensity: 3.9E+04

CCCCCCCCCCCCC(COC(=O)C(CCCCCCCC)CCCCCCCC)OC(=O)CCCN(C)C (stereo not shown) [E9C115A9]
Luciferase luminescence intensity: 1.4E+05

CCCCCCCCCCCC(COC(=O)C(CCCCCCCC)CCCCCCCC)OC(=O)CCCN(C)C (stereo not shown) [E8C115A9]
Luciferase luminescence intensity: 6.0E+04

CCCCCCCCCCCCCCC(COC(=O)CC(CCCCCCC)CCCCCCC)OC(=O)CCCCN(C)C (stereo not shown) [E11C128A11]
Luciferase luminescence intensity: 4.2E+04

CCCCCCCCCCCCCCC(COC(=O)CC(CCCCCCC)CCCCCCC)OC(=O)CCCN(C)C (stereo not shown) [E11C128A9]
Luciferase luminescence intensity: 3.9E+04

CCCCCCCCCCC(COC(=O)C(CCCCCCCC)CCCCCCCC)OC(=O)CCCN(C)C (stereo not shown) [E7C115A9]
Luciferase luminescence intensity: 5.6E+04

CCCCCCCCCCCCC(COC(=O)C(CCCCC)CCCCCCCCCCC)OC(=O)CCCCN(C)C (stereo not shown) [E9C111A11]
Luciferase luminescence intensity: 3.9E+04

CCCCCCCCCCCCCC(COC(=O)C(CCCCCCCC)CCCCCCCC)OC(=O)CCCCN(C)C (stereo not shown) [E10C115A11]
Luciferase luminescence intensity: 8.2E+04

CCCCCCCCCCCCC(COC(=O)C(CCCC)CCCCCCCCCC)OC(=O)CCCN(C)C (stereo not shown) [E9C104A9]
Luciferase luminescence intensity: 3.6E+04

CCCCCCCCCCC(COC(=O)CC(CCCCC)CCCCCCCCC)OC(=O)CCCN(C)C (stereo not shown) [E7C123A9]
Luciferase luminescence intensity: 4.3E+04

CCCCCCCCCCCC(COC(=O)C(CCCCC)CCCCCCCCCCC)OC(=O)CCCN(C)C (stereo not shown) [E8C111A9]
Luciferase luminescence intensity: 4.6E+04

CCCCCCCCCCCC(COC(=O)C(CCCCCCCC)CCCCCCCC)OC(=O)CCCCN(C)C (stereo not shown) [E8C115A11]
Luciferase luminescence intensity: 1.9E+05

CCCCCCCCCCC(COC(=O)C(CCCCCCC)CCCCCCC)OC(=O)CCCCN(C)C (stereo not shown) [E7C114A11]
Luciferase luminescence intensity: 9.9E+04

CCCCCCCCCCCCCC(COC(=O)C(CCCCC)CCCCCCCCC)OC(=O)CCCCN(C)C (stereo not shown) [E10C109A11]
Luciferase luminescence intensity: 3.5E+04

CCCCCCCCCCCCCC(COC(=O)C(CCCCCCCC)CCCCCCCC)OC(=O)CCCN(C)C (stereo not shown) [E10C115A9]
Luciferase luminescence intensity: 4.4E+04

CCCCCCCCCCCCC(COC(=O)C(CCCCCCCCC)CCCCCCCCC)OC(=O)CCCCN(C)C (stereo not shown) [E9C116A11]
Luciferase luminescence intensity: 7.6E+04

CCCCCCCCCCCCCC(COC(=O)CC(CCCCCCC)CCCCCCC)OC(=O)CCCN(C)C (stereo not shown) [E10C128A9]
Luciferase luminescence intensity: 3.8E+04

CCCCCCCCC(COC(=O)C(CCCCCCC)CCCCCCC)OC(=O)CCCCN(C)C (stereo not shown) [E5C114A11]
Luciferase luminescence intensity: 4.6E+04

CCCCCCCCCC(CCCCCCCCC)C(=O)OCC(CCCCCC)OC(=O)CCCCN(C)C (stereo not shown) [E3C116A11]
Luciferase luminescence intensity: 4.4E+04

CCCCCCCCCCCCC(COC(=O)C(CCCCCCC)CCCCCCC)OC(=O)CCCN(C)C (stereo not shown) [E9C114A9]
Luciferase luminescence intensity: 9.1E+04

CCCCCCCCCCCCC(COC(=O)C(CCCCCCCC)CCCCCCCC)OC(=O)CCCCN(C)C (stereo not shown) [E9C115A11]
Luciferase luminescence intensity: 1.9E+05

CCCCCCCCCC(CCCCC)C(=O)OCC(CCCCCCCC)OC(=O)CCCN(C)C (stereo not shown) [E5C109A9]
Luciferase luminescence intensity: 3.9E+03

CCCCCCCCCCC(CCCC)C(=O)OCC(CCCCCCCC)OC(=O)CCCN(C)C (stereo not shown) [E5C104A9]
Luciferase luminescence intensity: 5.2E+04

CCCCCCCCCCCCCCC(COC(=O)C(CCCCCCCC)CCCCCCCC)OC(=O)CCCN(C)C (stereo not shown) [E11C115A9]
Luciferase luminescence intensity: 4.9E+04

CCCCCCCCCCCCCC(COC(=O)C(CCCCCCC)CCCCCCC)OC(=O)CCCCN(C)C (stereo not shown) [E10C114A11]
Luciferase luminescence intensity: 7.6E+04

CCCCCCCCCCCC(COC(=O)C(CCCCC)CCCCCCCCC)OC(=O)CCCN(C)C (stereo not shown) [E8C109A9]
Luciferase luminescence intensity: 4.8E+04

CCCCCCCCCCCCCC(COC(=O)C(CCCCCCC)CCCCCCC)OC(=O)CCCN(C)C (stereo not shown) [E10C114A9]
Luciferase luminescence intensity: 4.3E+04

CCCCCCCCCCCC(COC(=O)CC(CCCCCCC)CCCCCCC)OC(=O)CCCN(C)C (stereo not shown) [E8C128A9]
Luciferase luminescence intensity: 3.9E+04

CCCCCCCCCCC(CCCC)CC(=O)OCC(CCCCCCCC)OC(=O)CCCN(C)C (stereo not shown) [E5C119A9]
Luciferase luminescence intensity: 4.1E+04
